This note sets out measurements from US20230148214A1, “INDAZOLES AND AZAINDAZOLES AS LRRK2 INHIBITORS” (ESCAPE Bio, Inc., priority 2020, published 2023).

One assay concerns the target T1, LRRK2 G2019S (Homo sapiens, UniProt Q5S007, G2019S).
T1 construct: purchased Life Technologies PV4881
Briefly: LRRK2 Kinase Activity Assay (LanthaScreen TR-FRET), G2019S. The class given is biochemical. Conditions: recombinant G2019S-LRRK2, 25 μM ATP, 400 nM LRRKtide, 60 min; class symbols. In outline:
(§1)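 IC50 fitted to the compound-dependent loss of TR-FRET signal. Each kinase form, wild type or G2019S, phosphorylated the fluorescein-tagged ERM-derived LRRKtide in the presence of ATP and compound dilutions over 60 min at room temperature; quench contained 10 mM EDTA and 2 nM anti-pERM antibody (final).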

The target of a further assay is T2, LRRK2 WT (Homo sapiens, UniProt Q5S007).
T2 construct: purchased Life Technologies PR8604B
T2 sequence (Q5S007 whole entry): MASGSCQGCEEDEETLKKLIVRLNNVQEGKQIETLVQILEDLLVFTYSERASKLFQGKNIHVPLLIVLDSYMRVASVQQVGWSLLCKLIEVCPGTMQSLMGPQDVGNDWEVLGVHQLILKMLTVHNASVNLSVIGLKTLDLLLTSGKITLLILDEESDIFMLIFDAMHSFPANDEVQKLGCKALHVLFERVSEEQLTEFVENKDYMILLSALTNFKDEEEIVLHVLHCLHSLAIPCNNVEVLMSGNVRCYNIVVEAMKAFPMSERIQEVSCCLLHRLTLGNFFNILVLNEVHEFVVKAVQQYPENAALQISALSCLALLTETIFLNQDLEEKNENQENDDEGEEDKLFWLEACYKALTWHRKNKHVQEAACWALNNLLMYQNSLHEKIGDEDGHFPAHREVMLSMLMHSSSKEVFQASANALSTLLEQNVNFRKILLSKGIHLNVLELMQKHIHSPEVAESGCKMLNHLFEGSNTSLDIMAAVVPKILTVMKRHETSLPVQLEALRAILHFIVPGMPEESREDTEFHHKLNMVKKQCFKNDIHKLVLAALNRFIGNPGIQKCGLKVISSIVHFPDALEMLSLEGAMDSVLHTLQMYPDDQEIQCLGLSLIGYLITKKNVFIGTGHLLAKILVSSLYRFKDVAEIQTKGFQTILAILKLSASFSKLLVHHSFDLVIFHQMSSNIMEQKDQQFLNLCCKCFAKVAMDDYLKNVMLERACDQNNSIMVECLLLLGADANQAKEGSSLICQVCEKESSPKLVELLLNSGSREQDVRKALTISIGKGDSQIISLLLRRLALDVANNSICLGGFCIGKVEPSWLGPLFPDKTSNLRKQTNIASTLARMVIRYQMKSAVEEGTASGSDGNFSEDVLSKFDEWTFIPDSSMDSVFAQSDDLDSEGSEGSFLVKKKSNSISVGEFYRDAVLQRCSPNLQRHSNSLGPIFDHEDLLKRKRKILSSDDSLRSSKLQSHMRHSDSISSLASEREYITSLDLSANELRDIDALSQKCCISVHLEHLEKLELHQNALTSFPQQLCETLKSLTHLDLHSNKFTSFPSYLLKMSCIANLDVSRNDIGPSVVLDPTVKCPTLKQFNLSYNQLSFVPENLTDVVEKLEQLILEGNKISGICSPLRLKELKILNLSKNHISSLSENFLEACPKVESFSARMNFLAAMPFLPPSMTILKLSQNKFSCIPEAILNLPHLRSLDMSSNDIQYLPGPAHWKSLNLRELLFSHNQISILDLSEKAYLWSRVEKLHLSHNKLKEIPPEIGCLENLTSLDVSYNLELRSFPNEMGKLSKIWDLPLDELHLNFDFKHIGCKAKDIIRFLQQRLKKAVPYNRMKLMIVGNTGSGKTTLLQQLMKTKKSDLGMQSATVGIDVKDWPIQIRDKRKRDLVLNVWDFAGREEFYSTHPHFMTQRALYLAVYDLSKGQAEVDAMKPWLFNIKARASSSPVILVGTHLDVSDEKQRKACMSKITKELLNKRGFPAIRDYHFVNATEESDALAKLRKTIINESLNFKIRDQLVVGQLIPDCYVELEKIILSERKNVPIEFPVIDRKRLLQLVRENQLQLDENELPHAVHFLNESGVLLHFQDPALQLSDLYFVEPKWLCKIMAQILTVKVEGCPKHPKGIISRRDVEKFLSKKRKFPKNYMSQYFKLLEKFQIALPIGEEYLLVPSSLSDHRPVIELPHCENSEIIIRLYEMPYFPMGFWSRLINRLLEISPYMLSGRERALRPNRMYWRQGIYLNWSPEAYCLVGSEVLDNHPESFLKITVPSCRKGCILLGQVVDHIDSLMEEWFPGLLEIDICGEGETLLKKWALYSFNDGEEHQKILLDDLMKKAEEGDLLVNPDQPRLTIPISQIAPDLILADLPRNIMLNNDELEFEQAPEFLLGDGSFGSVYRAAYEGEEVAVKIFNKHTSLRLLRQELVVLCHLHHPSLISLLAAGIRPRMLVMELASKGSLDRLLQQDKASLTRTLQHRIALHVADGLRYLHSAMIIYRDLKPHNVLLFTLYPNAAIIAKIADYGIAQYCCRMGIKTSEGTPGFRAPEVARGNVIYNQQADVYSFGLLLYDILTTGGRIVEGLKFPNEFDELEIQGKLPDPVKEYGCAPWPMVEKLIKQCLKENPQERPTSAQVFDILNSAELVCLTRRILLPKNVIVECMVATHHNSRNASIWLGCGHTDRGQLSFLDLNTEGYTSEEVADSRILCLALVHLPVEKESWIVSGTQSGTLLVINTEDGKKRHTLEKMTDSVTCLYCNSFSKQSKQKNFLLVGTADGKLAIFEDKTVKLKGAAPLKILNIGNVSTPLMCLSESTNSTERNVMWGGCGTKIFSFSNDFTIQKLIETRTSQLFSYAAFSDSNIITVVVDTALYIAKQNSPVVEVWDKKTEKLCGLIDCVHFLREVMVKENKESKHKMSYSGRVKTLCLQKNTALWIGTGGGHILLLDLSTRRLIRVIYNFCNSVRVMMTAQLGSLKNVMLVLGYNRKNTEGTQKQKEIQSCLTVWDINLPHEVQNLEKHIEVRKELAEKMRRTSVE
Description: LRRK2 Kinase Activity Assay (LanthaScreen TR-FRET), wild type. To be noted: recombinant wild type LRRK2, 25 μM ATP, 400 nM LRRKtide, 60 min; class symbols. The class given is biochemical. In outline: as §1
(In general: TR-FRET usually uses a lanthanide donor and a delayed reading to cut background.)

Where only a bound is given, the exact number is not on record here.

T1 sequence (Q5S007 whole entry G2019S): as the sequence (Q5S007 whole entry) above, with G2019S counted along it

Regarding `Cc1c(C#N)cnc2c1CCC[C@@H]2Nc1ccc2[nH]nc(-c3cnco3)c2c1` (single isomer, unassigned) [Example 150, enantiomer 1, 4-Methyl-8-((3-(oxazol-5-yl)-1H-indazol-5-yl)amino)-5,6,7,8-tetrahydroquinoline-3-carbonitrile], the IC50 at LRRK2 G2019S and at LRRK2 WT was 100 to 1000 nM throughout.
On to `Cc1c(C#N)cnc2c1CCC[C@@H]2Nc1ccc2[nH]nc(-c3cnco3)c2c1` (single isomer, unassigned) [Example 150, enantiomer 2, 4-Methyl-8-((3-(oxazol-5-yl)-1H-indazol-5-yl)amino)-5,6,7,8-tetrahydroquinoline-3-carbonitrile], for which the IC50 at LRRK2 G2019S and at LRRK2 WT was under 100 nM throughout.
Regarding `N#Cc1ccc2c(c1F)CC(F)(F)[C@@H]2Nc1ccc2[nH]nc(-c3cnco3)c2c1` (single isomer, unassigned) [Example 151, enantiomer 1, 2,2,4-Trifluoro-1-((3-(oxazol-5-yl)-1H-indazol-5-yl)amino)-2,3-dihydro-1H-indene-5-carbonitrile], the IC50 (commonly the point on the concentration scale where inhibition reaches its midpoint) at LRRK2 G2019S is under 100 nM; at LRRK2 WT, 100 to 1000 nM.
Turning to `N#Cc1ccc2c(c1)CCCC2Oc1ccc2[nH]nc(C(F)(F)F)c2c1` (single isomer, unassigned) [Example 152, enantiomer 1, 5-((3-(Trifluoromethyl)-1H-indazol-5-yl)oxy)-5,6,7,8-tetrahydronaphthalene-2-carbonitrile], the IC50 on LRRK2 G2019S and on LRRK2 WT was 1000 to 10000 nM throughout.
Consider `N#Cc1ccc2c(c1)CCCC2Nc1ccc2[nH]nc(C(F)(F)F)c2c1` (single isomer, unassigned) [Example 153, enantiomer 1, 5-((3-(Trifluoromethyl)-1H-indazol-5-yl)amino)-5,6,7,8-tetrahydronaphthalene-2-carbonitrile], for which the results for the IC50 at LRRK2 G2019S and at LRRK2 WT were under 100 nM and 1000 to 10000 nM, respectively.
On to `COc1c(C#N)cnc2c1CC[C@@H]2Nc1ccc2[nH]nc(-c3cnco3)c2c1` (single isomer, unassigned) [Example 154, enantiomer 2, 4-Methoxy-7-((3-(oxazol-5-yl)-1H-indazol-5-yl)amino)-6,7-dihydro-5H-cyclopenta[b]pyridine-3-carbonitrile], for which the IC50 on LRRK2 G2019S and on LRRK2 WT was under 100 nM throughout.
For `Cc1ncc(-c2n[nH]c3ccc(N[C@@H]4c5ccc(C#N)cc5CC4(F)F)cc23)o1` (single isomer, unassigned) [Example 155, enantiomer 1, 2,2-Difluoro-1-((3-(2-methyloxazol-5-yl)-1H-indazol-5-yl)amino)-2,3-dihydro-1H-indene-5-carbonitrile], the IC50 on LRRK2 G2019S and on LRRK2 WT was under 100 nM in each case.
Take `Cc1ncc(-c2n[nH]c3ccc(O[C@H]4CCc5c4ccc(C#N)c5F)cc23)o1` (single isomer, unassigned) [Example 156, enantiomer 1, 4-Fluoro-1-((3-(2-methyloxazol-5-yl)-1H-indazol-5-yl)oxy)-2,3-dihydro-1H-indene-5-carbonitrile]: the IC50 on LRRK2 G2019S and at LRRK2 WT was under 100 nM throughout.
Take `N#Cc1ccc2c(c1)CCC[C@@H]2Nc1ccc2[nH]nc(-c3ccn[nH]3)c2c1` (single isomer, unassigned) [Example 157, enantiomer 1, 5-((3-(1H-Pyrazol-5-yl)-1H-indazol-5-yl)amino)-5,6,7,8-tetrahydronaphthalene-2-carbonitrile]: the IC50 at LRRK2 G2019S and on LRRK2 WT was 100 to 1000 nM each time.
Turning to `N#Cc1ccc2c(c1)CCC[C@@H]2Nc1ccc2[nH]nc(-c3ccn[nH]3)c2c1` (single isomer, unassigned) [Example 157, enantiomer 2, 5-((3-(1H-Pyrazol-5-yl)-1H-indazol-5-yl)amino)-5,6,7,8-tetrahydronaphthalene-2-carbonitrile], the IC50 at LRRK2 G2019S and at LRRK2 WT was under 100 nM throughout.
As to `Cc1cc(-c2n[nH]c3ccc(N[C@H]4CCCc5cc(C#N)cnc54)cc23)sn1` (single isomer, unassigned) [Example 158, enantiomer 1, 8-((3-(3-Methylisothiazol-5-yl)-1H-indazol-5-yl)amino)-5,6,7,8-tetrahydroquinoline-3-carbonitrile], the IC50 on LRRK2 G2019S and at LRRK2 WT was under 100 nM in each case.
Turning to `Cc1ncc(-c2n[nH]c3ccc(N[C@H]4CCCc5cc(C#N)c(C)nc54)cc23)o1` (single isomer, unassigned) [Example 159, enantiomer 1, 2-Methyl-8-((3-(2-methyloxazol-5-yl)-1H-indazol-5-yl)amino)-5,6,7,8-tetrahydroquinoline-3-carbonitrile], the IC50 at LRRK2 G2019S and at LRRK2 WT was under 100 nM each time.
With `Cc1ncc(-c2n[nH]c3ccc(O[C@H]4CCc5cc(C#N)c(F)cc54)cc23)o1` (single isomer, unassigned) [Example 160, enantiomer 1, 6-Fluoro-1-((3-(2-methyloxazol-5-yl)-1H-indazol-5-yl)oxy)-2,3-dihydro-1H-indene-5-carbonitrile], the IC50 on LRRK2 G2019S and at LRRK2 WT was under 100 nM throughout.
Consider `N#Cc1cnc2c(c1)CCC[C@@H]2Oc1ccc2[nH]nc(-c3cnccn3)c2c1` (single isomer, unassigned) [Example 161, enantiomer 1, 8-((3-(Pyrazin-2-yl)-1H-indazol-5-yl)oxy)-5,6,7,8-tetrahydroquinoline-3-carbonitrile], for which the IC50 at LRRK2 G2019S and at LRRK2 WT was under 100 nM in each case.
Turning to `N#Cc1cnc2c(c1)CCC[C@@H]2Oc1ccc2[nH]nc(-c3cnccn3)c2c1` (single isomer, unassigned) [Example 161, enantiomer 2, 8-((3-(Pyrazin-2-yl)-1H-indazol-5-yl)oxy)-5,6,7,8-tetrahydroquinoline-3-carbonitrile], the IC50 on LRRK2 G2019S was under 100 nM; at LRRK2 WT, 100 to 1000 nM.
Take `[2H][C@]1(Nc2ccc3[nH]nc(-c4cnco4)c3c2)CCCc2cc(C#N)cnc21` (single isomer, unassigned) [Example 162, enantiomer 1, 8-Deuterio-8-((3-(oxazol-5-yl)-1H-indazol-5-yl)amino)-5,6,7,8-tetrahydroquinoline-3-carbonitrile]: the IC50 on LRRK2 G2019S and at LRRK2 WT was 100 to 1000 nM each time.
In the case of `[2H][C@]1(Nc2ccc3[nH]nc(-c4cnco4)c3c2)CCCc2cc(C#N)cnc21` (single isomer, unassigned) [Example 162, enantiomer 2, 8-Deuterio-8-((3-(oxazol-5-yl)-1H-indazol-5-yl)amino)-5,6,7,8-tetrahydroquinoline-3-carbonitrile], the IC50 on LRRK2 G2019S and on LRRK2 WT was under 100 nM throughout.
As to `N#Cc1cnc2c(n1)CCC[C@@H]2Oc1ccc2[nH]nc(-c3cnco3)c2c1` (single isomer, unassigned) [Example 163, enantiomer 1, 5-[[3-(1,3-Oxazol-5-yl)-1H-indazol-5-yl]oxy]-5,6,7,8-tetrahydroquinoxaline-2-carbonitrile], the IC50 on LRRK2 G2019S is under 100 nM; on LRRK2 WT it was 100 to 1000 nM.
On to `Cc1nc2c(c(C)c1C#N)CCC[C@@H]2Nc1ccc2[nH]nc(-c3cnco3)c2c1` (single isomer, unassigned) [Example 164, enantiomer 1, 2,4-Dimethyl-8-[[3-(1,3-oxazol-5-yl)-1H-indazol-5-yl]amino]-5,6,7,8-tetrahydroquinoline-3-carbonitrile], for which the IC50 at LRRK2 G2019S is under 100 nM; on LRRK2 WT, 100 to 1000 nM.
For `COc1nc2c(c(C)c1C#N)CCC[C@@H]2Nc1ccc2[nH]nc(-c3cnco3)c2c1` (single isomer, unassigned) [Example 165, enantiomer 1, 2-Methoxy-4-methyl-8-[[3-(1,3-oxazol-5-yl)-1H-indazol-5-yl]amino]-5,6,7,8-tetrahydroquinoline-3-carbonitrile], the IC50 on LRRK2 G2019S was under 100 nM; on LRRK2 WT, 100 to 1000 nM.
In the same order, the values of `Cc1c(C#N)c(Cl)nc2c1CC[C@@H]2Oc1ccc2[nH]nc(-c3cnco3)c2c1` (single isomer, unassigned) [Example 166, enantiomer 1, 2-Chloro-4-methyl-7-[[3-(1,3-oxazol-5-yl)-1H-indazol-5-yl]oxy]-6,7-dihydro-5H-cyclopenta[b]pyridine-3-carbonitrile] are under 100 nM and under 100 nM.
Take `N#Cc1c(F)cc2c(c1F)CC[C@@H]2Oc1ccc2[nH]nc(-c3cnco3)c2c1` (single isomer, unassigned) [Example 167, enantiomer 1, 4,6-Difluoro-1-[[3-(1,3-oxazol-5-yl)-1H-indazol-5-yl]oxy]-2,3-dihydro-1H-indene-5-carbonitrile]: the figures for the IC50 on LRRK2 G2019S and on LRRK2 WT were under 100 nM and 100 to 1000 nM, respectively.
For `C[C@@H]1C[C@@H](Nc2ccc3[nH]nc(-c4cnco4)c3c2)c2ccc(C#N)cc21` (single isomer, unassigned) [Example 168, enantiomer 1, trans-3-Methyl-1-[[3-(1,3-oxazol-5-yl)-1H-indazol-5-yl]amino]-2,3-dihydro-1H-indene-5-carbonitrile], the IC50 on LRRK2 G2019S was under 100 nM; on LRRK2 WT it was 100 to 1000 nM.
For `C[C@@H]1C[C@@H](Nc2ccc3[nH]nc(-c4cnco4)c3c2)c2ccc(C#N)cc21` (single isomer, unassigned) [Example 168, enantiomer 2, trans-3-Methyl-1-[[3-(1,3-oxazol-5-yl)-1H-indazol-5-yl]amino]-2,3-dihydro-1H-indene-5-carbonitrile], the figures for the IC50 at LRRK2 G2019S and at LRRK2 WT were under 100 nM and 100 to 1000 nM, respectively.
Consider `C[C@H]1C[C@@H](Nc2ccc3[nH]nc(-c4cnco4)c3c2)c2ccc(C#N)cc21` (single isomer, unassigned) [Example 169, enantiomer 1, cis-3-Methyl-1-[[3-(1,3-oxazol-5-yl)-1H-indazol-5-yl]amino]-2,3-dihydro-1H-indene-5-carbonitrile], for which the values for the IC50 on LRRK2 G2019S and at LRRK2 WT were under 100 nM and 100 to 1000 nM, respectively.
